Earlier results on two compounds are cited in US10385093B2, “Estrogen receptor imaging agents” (Northeastern University, priority 2012, dated 2019).

For series [1] the following is noted: small animal studies.
The subject of series [2] is ER. The note with it: binding to ER in target tissues.
The target in series [3] is T1, steroid hormone binding globulin (SHBG) (Homo sapiens, UniProt P04278).
T1 construct: host or cells: circulating plasma
T1 sequence (P04278 30-402): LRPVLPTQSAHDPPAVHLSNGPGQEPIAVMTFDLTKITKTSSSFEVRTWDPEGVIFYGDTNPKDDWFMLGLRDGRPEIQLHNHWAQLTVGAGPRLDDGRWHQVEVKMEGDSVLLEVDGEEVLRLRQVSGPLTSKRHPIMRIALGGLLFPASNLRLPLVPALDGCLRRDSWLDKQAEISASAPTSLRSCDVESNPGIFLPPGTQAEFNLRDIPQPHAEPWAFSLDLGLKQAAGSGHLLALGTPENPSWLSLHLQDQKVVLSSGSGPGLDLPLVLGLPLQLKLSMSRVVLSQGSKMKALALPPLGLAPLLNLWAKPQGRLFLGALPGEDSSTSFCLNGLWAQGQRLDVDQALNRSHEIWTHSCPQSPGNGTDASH

The conditions of series [4]: plasma of patients.
The conditions of series [5]: rats, by 60 minutes after injection.

Turning to `CO[C@H]1C[C@]2(C)[C@@H](O)[C@H]([18F])C[C@H]2[C@@H]2CCc3c(ccc(O)c3F)[C@H]21` [4FMFES, 4-Fluoro-11β-methoxy-16α-[^18F]-flouroestradiol], in series [1], the “selectivity uptake ratios compared with [^18F]-ES” value is recorded as “higher selectivity uptake ratios”.
Take `C[C@]12CC[C@@H]3c4ccc(O)cc4CC[C@H]3[C@@H]1C[C@@H](F)[C@@H]2O` [FES, [^18F]-16α-fluoroestradiol]: the “relative binding affinity (RBA)” value in series [2] is 80%. For the same compound, the “FES in circulating plasma complexed with SHBG” value in series [3] is recorded as not above 45%. The “radioactivity in plasma that is parent FES” value in series [4] is given as “less than 20%”. Moreover, in series [5], the “circulating radioactivity due to [18F]-FES” value is recorded as “less than 15%”.
